Reference: patent US7947703B2, “Phenanthridinium derivatives as DNA binding agents” (University Court of the University of Glasgow, priority 2003, dated 2011)
Entries after “also recorded” stand apart in the source; their conditions may differ. Marks after values point to notes of the source that are not given here.

Key:
[1] = test system: human ovarian tumour cell line A2780; test: growth (tetrazolium dye-based microtitration) cytotoxicity assay, A2780; type: cell-based; details: for IC50: Homo sapiens, A2780, cisplatin-sensitive line, 24 hours drug exposure, 3 day recovery, mean±SEM of triplicate plates; for cytotoxicity (in words): overall statement across A2780, A2780/cp70 and MCP1
Procedure: (§1) Compounds were tested in a growth assay with a 24 hours drug exposure and a 3 day recovery period. Cell lines used were human ovarian tumour cell line A2780 and 2 Cisplatin resistant derivatives cell lines A27080/cp70 and MCP1. IC50 is the concentration of drug required to reduce the surviving cell number to 50% of that of the control untreated cells. Results are from one experiment and are the mean±SEM of the triplicate plates.
(§2) DIP cytotoxicity was determined by a tetrazolium dye-based microtitration assay. DNA affinity measurements of DIPs were undertaken using Isothermal Titration Calorimetry (ITC).

[2] = test system: Cisplatin resistant cell line A2780/cp70; test: growth (tetrazolium dye-based microtitration) cytotoxicity assay, A2780/cp70; type: cell-based, human; details: for IC50: Homo sapiens, A2780/CP70, cisplatin-resistant line, 24 hours drug exposure, 3 day recovery, mean±SEM of triplicate plates; for RF1: rapport of the IC50 between A2780 and A2780/cp70, the lower RF the better
Procedure: as §1, §2

[3] = test system: Cisplatin resistant cell line MCP1; test: growth (tetrazolium dye-based microtitration) cytotoxicity assay, MCP1; type: cell-based, human; details: for IC50: Homo sapiens, cisplatin-resistant line, 24 hours drug exposure, 3 day recovery, mean±SEM of triplicate plates; for RF2: rapport of the IC50 between A2780 and MCP1, the lower RF the better
Procedure: as §1, §2

Salmon DNA = test: DNA affinity by Isothermal Titration Calorimetry (ITC), Salmon DNA; type: binding; set-up: key to Ka Salmon DNA: *^1: No measurable binding via ITC; details: for DNA affinity (in words): DNA source not given
Procedure: as §2

Calf DNA = test: DNA affinity by Isothermal Titration Calorimetry (ITC), Calf DNA; type: binding; set-up: key: *^1: No measurable binding via ITC
Procedure: as §2

[Br-].[Br-].[Br-].c1ccc2c(c1)c[n+](CCN1CCCN(CC[n+]3cc4ccccc4c4ccccc43)CCCN(CC[n+]3cc4ccccc4c4ccccc43)CCC1)c1ccccc21 [AP4-55]
IC50 [1]: 2.28 ± 0.23 µM
cytotoxicity (in words) [1]: good cytotoxicity
IC50 [2]: 1.59 ± 0.15 µM
RF1 [2]: 0.7
IC50 [3]: 1.13 ± 0.12 µM
RF2 [3]: 0.5

COc1ccc(CN2CC[n+]3c2ccc2ccccc23)cc1 [AP4-44, 3-(4-Methoxy-benzyl)-2,3-dihydro-1H-imidazo[1,2-a]quinolin-10-ylium bromide]
IC50 [1]: 30.9 ± 2.5 µM
cytotoxicity (in words) [1]: much less cytotoxicity
IC50 [2]: 12.6 ± 0.6 µM
RF1 [2]: 0.4
IC50 [3]: 11 ± 1 µM
RF2 [3]: 0.4
Ka Salmon DNA (Salmon DNA): *^1
DNA affinity (in words) (Salmon DNA): cancel any measurable DNA affinity
Ka Calf DNA (Calf DNA): *^1

CC(C)N1CC[n+]2c1c1ccccc1c1ccccc12.[Br-]
melting point: 250 to 251 °C (dec.)

[Br-].[Br-].c1ccc2c(c1)c1[n+](c3ccccc23)CCN1CCNCCN1CC[n+]2c1c1ccccc1c1ccccc12 [LS1-81]
IC50 [1]: 32.4 ± 2 µM
IC50 [2]: 15.1 ± 0.9 µM
RF1 [2]: 0.5
IC50 [3]: 25.4 ± 2.9 µM
RF2 [3]: 0.8

COc1ccc(CN2CC[n+]3c2c2ccccc2c2ccccc23)cc1.[Br-] [AP3-56, 1-(4-Methoxy-benzyl)-2,3-dihydro-1H-imidazo[1,2-f]phenanthridinium bromide]
IC50 [1]: 1.53 ± 0.09 µM
IC50 [2]: 1.56 ± 0.06 µM
RF1 [2]: 1.0
IC50 [3]: 1.06 ± 0.06 µM
RF2 [3]: 0.7

[Br-].c1ccc2c(c1)c1[n+](c3ccccc23)CCN1C1CC1 [AP3-80]
IC50 [1]: 5.07 ± 1.06 µM
IC50 [2]: 4.54 ± 0.7 µM
RF1 [2]: 0.9
IC50 [3]: 5.68 ± 0.86 µM
RF2 [3]: 1.1

Br.Br.Br.O=C(CN1CC[n+]2c1c1ccccc1c1ccccc12)N1CCCN(C(=O)CN2CC[n+]3c2c2ccccc2c2ccccc23)CCCN(C(=O)CN2CC[n+]3c2c2ccccc2c2ccccc23)CCC1 [AP9-82]
IC50 [1]: 15.6 ± 2.76 µM
IC50 [2]: 4.57 ± 0.18 µM
RF1 [2]: 0.3
IC50 [3]: 7.59 ± 0.32 µM
RF2 [3]: 0.5

COC(=O)[C@@H](Cc1ccccc1)N1CC[n+]2c1c1ccccc1c1ccccc12.[Br-] [LS2-6]
cytotoxicity on cisplatin-sensitive cell line A2780 (in words) [1]: moderate cytotoxicity
IC50 [1]: 31.2 ± 4.2 µM
cytotoxicity (in words) [1]: moderate activity; also recorded: moderate cytotoxicity in the three lines
IC50 [2]: 26.4 ± 3.3 µM
RF1 [2]: 0.9
IC50 [3]: 34.2 ± 4.3 µM
RF2 [3]: 1.1

COc1ccc(CSCC[n+]2cc3ccccc3c3ccccc32)cc1.[Br-]
melting point: 182 to 183 °C

COC(=O)[C@H](Cc1ccccc1)N1CC[n+]2c1c1ccccc1c1ccccc12.[Br-] [AP8-56]
cytotoxicity on cisplatin-sensitive cell line A2780 (in words) [1]: moderate cytotoxicity
IC50 [1]: 35.8 ± 4.2 µM
cytotoxicity (in words) [1]: moderate activity
IC50 [2]: 21.6 ± 1.8 µM
IC50 [3]: 20 ± 1.2 µM
Ka Salmon DNA (Salmon DNA): *^1
DNA affinity (in words) (Salmon DNA): does not have any measurable binding property
Ka Calf DNA (Calf DNA): *^1

COc1ccc(N2CC[n+]3c2c2ccccc2c2ccccc23)cc1.[Br-] [AP3-83]
IC50 [1]: 1.45 ± 0.15 µM
IC50 [2]: 1.1 ± 0.13 µM
RF1 [2]: 0.8
IC50 [3]: 0.5 ± 0.04 µM
RF2 [3]: 0.3
Ka Salmon DNA (Salmon DNA): 3.73 ± 1827 M^−1 (10^4)
Ka Calf DNA (Calf DNA): 3.46 ± 1726 M^−1 (10^4)

COc1ccc2c(c[n+](C)c3c4cc5c(cc4ccc23)OCO5)c1OC.[Cl-] [Chelerythrine, reference compound]
IC50 [1]: 4.63 ± 0.52 µM
IC50 [2]: 1.79 ± 0.02 µM
RF1 [2]: 0.4
IC50 [3]: 2.29 ± 0.15 µM
RF2 [3]: 0.5

OCCN1CC[n+]2c1c1ccccc1c1ccccc12.[Br-] [AP6-5]
IC50 [1]: 11.7 ± 1.2 µM
IC50 [2]: 13.7 ± 1.5 µM
RF1 [2]: 1.2
IC50 [3]: 7.8 ± 1.47 µM
RF2 [3]: 0.7
Ka Salmon DNA (Salmon DNA): 1.84 ± 660 M^−1 (10^4)
Ka Calf DNA (Calf DNA): 1.53 ± 838.9 M^−1 (10^4)

[Br-].[Br-].c1ccc2c(c1)c[n+](CCN1CCN(CC[n+]3cc4ccccc4c4ccccc43)CC1)c1ccccc21
melting point: 260 to 261 °C

[Br-].[Br-].[Br-].c1ccc2c(c1)c1[n+](c3ccccc23)CCN1[C@H]1C[C@@H](N2CC[n+]3c2c2ccccc2c2ccccc23)C[C@@H](N2CC[n+]3c2c2ccccc2c2ccccc23)C1 [AP3-42]
IC50 [1]: 8.02 ± 1.14 µM
IC50 [2]: 7.29 ± 0.38 µM
RF1 [2]: 0.9
IC50 [3]: 9.44 ± 0.58 µM
RF2 [3]: 1.2

COc1ccc(CN2CC[n+]3c2c2ccccc2c2cc(Br)ccc23)cc1.[Br-] [LS1-72]
IC50 [1]: 0.823 ± 0.219 µM
IC50 [2]: 1.67 ± 0.18 µM
RF1 [2]: 2
IC50 [3]: 0.997 ± 0.034 µM
RF2 [3]: 1.2
